Measured values as given in patent US11382328B2, “Rapid drug discovery methods for pathogen inactivation” (priority 2019, dated 2022).

Tested on: E. coli strain W3110
Assay: Synergy assays: Biolog chemical sensitivity panels with Group IB metal, coefficient of drug interaction (CDI) from relative growth
Type: cell-based
Settings: for CDI (coefficient of drug interaction), gold + biocide: Gold (μM); for CDI (coefficient of drug interaction), copper mixed with biocide: Copper (mM) section

## CC1=C(C(=O)Nc2ccccc2)S(=O)(=O)CCO1 [Oxycarboxin]
Copper (mM), 1st of 3 copper concentrations (head line not shown), biocide concentration 3 of 4, E. coli
  CDI (coefficient of drug interaction): Tox
Copper (mM), 1st of 3 copper concentrations (head line not shown), biocide concentration 4 of 4, E. coli
  CDI (coefficient of drug interaction): Tox
Copper (mM), 2nd of 3 copper concentrations (head line not shown), biocide concentration 3 of 4, E. coli
  CDI (coefficient of drug interaction): Tox
Copper (mM), 2nd of 3 copper concentrations (head line not shown), biocide concentration 4 of 4, E. coli
  CDI (coefficient of drug interaction): Tox
Copper (mM), 3rd of 3 copper concentrations (head line not shown), biocide concentration 3 of 4, E. coli
  CDI (coefficient of drug interaction): Tox
Copper (mM), 3rd of 3 copper concentrations (head line not shown), biocide concentration 4 of 4, E. coli
  CDI (coefficient of drug interaction): Tox
First of 3 gold concentrations, biocide concentration 2 of 4
  CDI (coefficient of drug interaction), gold + biocide: Tox
First of 3 gold concentrations, biocide concentration 3 of 4
  CDI (coefficient of drug interaction), gold + biocide: Tox
First of 3 gold concentrations, biocide concentration 4 of 4
  CDI (coefficient of drug interaction), gold + biocide: Tox
Second of 3 gold concentrations, biocide concentration 2 of 4
  CDI (coefficient of drug interaction), gold + biocide: Tox
Second of 3 gold concentrations, biocide concentration 3 of 4
  CDI (coefficient of drug interaction), gold + biocide: Tox
Second of 3 gold concentrations, biocide concentration 4 of 4
  CDI (coefficient of drug interaction), gold + biocide: Tox
Third of 3 gold concentrations, biocide concentration 2 of 4
  CDI (coefficient of drug interaction), gold + biocide: Tox
Third of 3 gold concentrations, biocide concentration 3 of 4
  CDI (coefficient of drug interaction), gold + biocide: Tox
Third of 3 gold concentrations, biocide concentration 4 of 4
  CDI (coefficient of drug interaction), gold + biocide: Tox
Silver 0.5 μM, biocide concentration 2 of 4
  CDI: Tox
Silver 0.5 μM, biocide concentration 3 of 4
  CDI: Tox
Silver 0.5 μM, biocide concentration 4 of 4
  CDI: Tox
Silver 1.0 μM, biocide concentration 2 of 4
  CDI: Tox
Silver 1.0 μM, biocide concentration 3 of 4
  CDI: Tox
Silver 1.0 μM, biocide concentration 4 of 4
  CDI: Tox
Silver 5.0 μM, biocide concentration 2 of 4
  CDI: Tox
Silver 5.0 μM, biocide concentration 3 of 4
  CDI: Tox
Silver 5.0 μM, biocide concentration 4 of 4
  CDI: Tox

## Niaproof
1st of 3 copper concentrations (value not shown), 1st of four biocide concentrations
  CDI (coefficient of drug interaction), copper mixed with biocide: 1.26
1st of 3 copper concentrations (value not shown), 2nd of four biocide concentrations
  CDI (coefficient of drug interaction), copper mixed with biocide: 1.45
1st of 3 copper concentrations (value not shown), 3rd of four biocide concentrations
  CDI (coefficient of drug interaction), copper mixed with biocide: 0.74
1st of 3 copper concentrations (value not shown), 4th of four biocide concentrations
  CDI (coefficient of drug interaction), copper mixed with biocide: 0.91
2nd of 3 copper concentrations (value not shown), 1st of four biocide concentrations
  CDI (coefficient of drug interaction), copper mixed with biocide: 1.09
2nd of 3 copper concentrations (value not shown), 2nd of four biocide concentrations
  CDI (coefficient of drug interaction), copper mixed with biocide: 1.20
2nd of 3 copper concentrations (value not shown), 3rd of four biocide concentrations
  CDI (coefficient of drug interaction), copper mixed with biocide: 0.43
2nd of 3 copper concentrations (value not shown), 4th of four biocide concentrations
  CDI (coefficient of drug interaction), copper mixed with biocide: 0.46
3rd of 3 copper concentrations (value not shown), 1st of four biocide concentrations
  CDI (coefficient of drug interaction), copper mixed with biocide: 1.19
3rd of 3 copper concentrations (value not shown), 2nd of four biocide concentrations
  CDI (coefficient of drug interaction), copper mixed with biocide: 1.00
3rd of 3 copper concentrations (value not shown), 3rd of four biocide concentrations
  CDI (coefficient of drug interaction), copper mixed with biocide: 0.73
3rd of 3 copper concentrations (value not shown), 4th of four biocide concentrations
  CDI (coefficient of drug interaction), copper mixed with biocide: 1.32
Gold section of Table 5, first of three gold concentrations (μM, value not given), biocide concentration 1 of 4
  CDI (coefficient of drug interaction): 1.32
Gold section of Table 5, first of three gold concentrations (μM, value not given), biocide concentration 4 of 4
  CDI (coefficient of drug interaction): 1.27
Gold section of Table 5, second of three gold concentrations (μM, value not given), biocide concentration 1 of 4
  CDI (coefficient of drug interaction): 1.21
Gold section of Table 5, second of three gold concentrations (μM, value not given), biocide concentration 2 of 4
  CDI (coefficient of drug interaction): 1.03
Gold section of Table 5, second of three gold concentrations (μM, value not given), biocide concentration 3 of 4
  CDI (coefficient of drug interaction): 1.09
Gold section of Table 5, second of three gold concentrations (μM, value not given), biocide concentration 4 of 4
  CDI (coefficient of drug interaction): 1.15
Gold section of Table 5, third of three gold concentrations (μM, value not given), biocide concentration 1 of 4
  CDI (coefficient of drug interaction): 1.35
Gold section of Table 5, third of three gold concentrations (μM, value not given), biocide concentration 2 of 4
  CDI (coefficient of drug interaction): 1.20
Gold section of Table 5, third of three gold concentrations (μM, value not given), biocide concentration 3 of 4
  CDI (coefficient of drug interaction): 0.95
Gold section of Table 5, third of three gold concentrations (μM, value not given), biocide concentration 4 of 4
  CDI (coefficient of drug interaction): 1.51
Silver 0.5 μM, 1st of four biocide concentrations, E. coli
  CDI (coefficient of drug interaction), silver + biocide: 1.07
Silver 0.5 μM, 2nd of four biocide concentrations, E. coli
  CDI (coefficient of drug interaction), silver + biocide: 1.17
Silver 0.5 μM, 4th of four biocide concentrations, E. coli
  CDI (coefficient of drug interaction), silver + biocide: 1.74
Silver 1.0 μM, 2nd of four biocide concentrations, E. coli
  CDI (coefficient of drug interaction), silver + biocide: 1.17
Silver 1.0 μM, 3rd of four biocide concentrations, E. coli
  CDI (coefficient of drug interaction), silver + biocide: 0.99
Silver 1.0 μM, 4th of four biocide concentrations, E. coli
  CDI (coefficient of drug interaction), silver + biocide: 1.45
Silver 5.0 μM, 1st of four biocide concentrations, E. coli
  CDI (coefficient of drug interaction), silver + biocide: 0.89
Silver 5.0 μM, 2nd of four biocide concentrations, E. coli
  CDI (coefficient of drug interaction), silver + biocide: 0.99
Silver 5.0 μM, 3rd of four biocide concentrations, E. coli
  CDI (coefficient of drug interaction), silver + biocide: 0.78
Silver 5.0 μM, 4th of four biocide concentrations, E. coli
  CDI (coefficient of drug interaction), silver + biocide: 0.55

## O=C1CN(/N=C/c2ccc([N+](=O)[O-])o2)C(=O)N1 [nitrofurantoin]
Gold 50 μM, biocide concentration 4 of 4, E. coli
  CDI (coefficient of drug interaction): Tox
